Here are results for 22 compounds from patent US20120245344A1 (NIPPON CHEMIPHAR CO., LTD., priority 2009, published 2012).

The EC50 is the concentration giving half of the maximal effect. Read a low EC50 as higher potency in that assay.

In the assay the target is T1, human GPR119 (Homo sapiens, UniProt Q8TDV5).
T1 construct: expressed in transfected cells; host or cells: Flp-in T-Rex-293 cells (Invitrogen #R78007), plasmid pcDNA5/FRT/TO, expression induced with tetracycline
T1 sequence (Q8TDV5 1-335): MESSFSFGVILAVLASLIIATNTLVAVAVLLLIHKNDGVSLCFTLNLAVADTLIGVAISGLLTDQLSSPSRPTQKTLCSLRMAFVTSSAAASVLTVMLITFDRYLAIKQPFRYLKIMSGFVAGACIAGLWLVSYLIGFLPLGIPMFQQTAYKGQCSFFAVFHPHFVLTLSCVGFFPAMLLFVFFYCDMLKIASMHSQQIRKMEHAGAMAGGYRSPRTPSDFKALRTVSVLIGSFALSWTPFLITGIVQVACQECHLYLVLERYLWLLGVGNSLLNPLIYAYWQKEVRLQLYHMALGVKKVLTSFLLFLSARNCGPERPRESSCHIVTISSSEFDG
The assay can be described thus: Measurement of intracellular cAMP in stable cell line expressing human GPR119 (GPR119 agonist effect). It is filed as cell-based. The settings on record: increase of intracellular cAMP, Flp-in T-Rex-293 cells expressing human GPR119, 37° C. for 30 minutes.
From the text: The GPR119 agonist effect is studied by measuring the effect of an analyte on increase of intracellular amount of cAMP in human GPR119 introduced cells. The testing method is described below.
Human GPR119 gene (NM 178471) is purchased from ATCC (ATCC No. 10807349), and is amplyfied according to PCR to form BamHI site at 5′ side and Apa I site at 3′ side. The primers are […] (sequence No. 1) and […] (sequence No. 2). The PCR conditions are described below.
The double-stranded DNA is thermally denatured using a DNA polymerase (KOD-Plus-Ver. 2; TOYOBO #KOD-211) at 98° C. for 10 seconds in one cycle. The denatured single-stranded DNA is annealed with the primers at 55° C. for 30 seconds. The DNA is subjected to an extension reaction at 68° C. for 1 minute and 15 seconds. The above-mentioned steps are repeated in 35 cycles. The PCR product is inserted into pcDNA5/FRT/TO (Invitrogen #V6520-20) plasmid. Flp-in T-Rex-293 cells (Invitorogen #R78007) are transfected with the obtained plasmid. The method of transfection is conducted in accordance with the protocol of the product.
(§1) The stable cell line expressing human GPR119 prepared in the above-mentioned method is plated on a 96-well plate at the concentration of 2,500 cells/well using Dulbecco's Modified Eagle Medium (DMEM) containing 10% fetal bovine serum (FBS). Twenty-four hours after plating, tetracyclin (Invitrogen #Q10019) is added at the final concentration of 20 ng/mL to induce hGPR119 gene expression. Twenty-four hours after, the medium is removed, and the cells are stimulated with an assay buffer (0.5 mM IBMX PBS (−)) containing the test compound at 37° C. for 30 minutes. The amount of the intracellular cAMP is measured using a commercially available kit (HitHunter™ cAMP XS+Assay: GE Healthcare #90007503) and a reader (FLUOstar Optima: BMG LABTECH). The test compound is dissolved in 100% DMSO, and added at the final concentration of 1%.
Human GPR119 gene (NM 178471) was purchased from ATCC (ATCC No. 10807349), and is amplyfied according to PCR to form BamHI site at 5′ side and Apa I site at 3′ side. The primers were […] (sequence No. 1) and […] (sequence No. 2). The PCR conditions are described below. The double-stranded DNA was thermally denatured using a DNA polymerase (KOD-Plus-Ver. 2; TOYOBO #KOD-211) at 98° C. for 10 seconds in one cycle. The denatured single-stranded DNA was annealed with the primers at 55° C. for 30 seconds. The DNA was subjected to an extension reaction at 68° C. for 1 minute and 15 seconds. The above-mentioned steps were repeated in 35 cycles. The PCR product was inserted into pcDNA5/FRT/TO (Invitrogen #V6520-20) plasmid. Flp-in T-Rex-293 cells (Invitorogen #R78007) were transfected with the obtained plasmid. The method of transfection was conducted in accordance with the protocol of the product.
as §1, with “method was” for “method is”, “#Q10019) was” for “#Q10019) is”, “medium was” for “medium is”, “cells were” for “cells are”, “cAMP was” for “cAMP is”, “compound was” for “compound is”
The examination was performed by the method similar to Example 87 Pharmacological experiment 1-(1), -(2).
The compound `Cc1cc(C2CCN(C(=O)OC(C)(C)C)CC2)cnc1Cn1ccc2cc(S(C)(=O)=O)ccc21` [Example 5, tert-Butyl 4-[2-(5-methanesulfonylindol-1-ylmethyl)-3-methylpyridin-5-yl]piperidine-1-carboxylate] had an EC50 of 31.6 nM.

`CC(C)(C)OC(=O)N1CCC(c2ccc(-c3cc4cc(S(C)(=O)=O)ccc4o3)nc2)CC1` [Example 9, tert-Butyl 4-[2-(5-methanesulfonylbenzofuran-2-yl)pyridin-5-yl]piperidine-1-carboxylate] returned an EC50 of 420 nM.

`CC(C)(C)OC(=O)N1CCC(c2ccc(Cn3ccc4cc(S(C)(=O)=O)cc(F)c43)nc2)CC1` [Example 11, tert-Butyl 4-[2-(7-fluoro-5-methanesulfonylindol-1-ylmethyl)pyridin-5-yl]piperidine-1-carboxylate]: the EC50 amounted to 21.4 nM.

The compound `CC(C)(C)OC(=O)N1CCC(c2cnc(Cn3ccc4cc(S(C)(=O)=O)ccc43)c(F)c2)CC1` [Example 13, tert-Butyl 4-[3-fluoro-2-(5-methanesulfonylindol-1-ylmethyl)pyridin-5-yl]piperidine-1-carboxylate] showed an EC50 of 36.3 nM.

Turning to `CC(C)(C)OC(=O)N1CCC(c2cnc(Cn3ccc4cc(S(C)(=O)=O)ccc43)c(Cl)c2)CC1` [Example 14, tert-Butyl 4-[3-chloro-2-(5-methanesulfonylindol-1-ylmethyl)pyridin-5-yl]piperidine-1-carboxylate], the EC50 came out at 9.5 nM.

`CC(C)c1nc(N2CCC(c3ccc(Cn4ccc5cc(S(C)(=O)=O)ccc54)nc3)CC2)no1` [Example 16, 5-Isopropyl-3-[4-[2-(5-methanesulfonylindol-1-ylmethyl)pyridin-5-yl]piperidin-1-yl]-[1,2,4]oxadiazole] returned an EC50 of 49.1 nM. Against the preceding compound, the EC50 is about 5.2-fold higher.

With `CC(C)(C)OC(=O)N1CCC(c2ccc(Cn3ccc4cc(S(C)(=O)=O)cnc43)nc2)CC1` [Example 17, tert-Butyl 4-[2-(5-methanesulfonyl-1H-pyrrolo[2,3-b]pyridin-1-ylmethyl)pyridin-5-yl]piperidine-1-carboxylate], the EC50 was determined as 30.4 nM.

In the case of `CC(C)(C)OC(=O)N1CCC(c2ccc(Cn3ccc4cc(S(C)(=O)=O)cc([N+](=O)[O-])c43)nc2)CC1` [Example 18, tert-Butyl 4-[2-(5-methanesulfonyl-7-nitroindol-1-ylmethyl)pyridin-5-yl]piperidine-1-carboxylate], it took 25.6 nM to reach a half-maximal effect (EC50).

The compound `CC(C)(C)OC(=O)N1CCC(c2ccc(Cn3ccc4cc(S(C)(=O)=O)cc(N)c43)nc2)CC1` [Example 19, tert-Butyl 4-[2-(7-amino-5-methanesulfonylindol-1-ylmethyl)pyridin-5-yl]piperidine-1-carboxylate] came in with an EC50 of 181 nM.

In the case of `CC(C)(C)OC(=O)N1CCC(c2ccc(Cn3ccc4cc(-n5cnnn5)ccc43)nc2)CC1` [Example 20, tert-Butyl 4-[2-[5-(tetrazol-1-yl)indol-1-ylmethyl]pyridin-5-yl]piperidine-1-carboxylate], the EC50 is 18.5 nM.

Take `CC(C)(C)OC(=O)N1CCC(c2ccc(Cn3ncc4cc(S(C)(=O)=O)ccc43)nc2)CC1` [Example 21, tert-Butyl 4-[2-(5-methanesulfonylindazol-1-ylmethyl)pyridin-5-yl]piperidine-1-carboxylate]: the EC50 was 428 nM.

Consider `CC(C)(C)OC(=O)N1CCC(c2ccc(Cn3cc4cc(S(C)(=O)=O)ccc4n3)nc2)CC1` [Example 22, tert-Butyl 4-[2-(5-methanesulfonylindazol-2-ylmethyl)pyridin-5-yl]piperidine-1-carboxylate], for which the concentration for a half-maximal effect (EC50) came out at 458 nM.

The compound `CC(C)(C)OC(=O)N1CCC(c2ccc(Cn3ccc4c(F)c(S(C)(=O)=O)ccc43)nc2)CC1` [Example 23, tert-Butyl 4-[2-(4-fluoro-5-methanesulfonylindol-1-ylmethyl)pyridin-5-yl]piperidine-1-carboxylate] registered an EC50 of 51.3 nM.

In turn, `CC(C)(C)OC(=O)N1CCC(c2ccc(CN3CCc4cc(S(C)(=O)=O)cc(F)c43)nc2)CC1` [Example 25, tert-Butyl 4-[2-(7-fluoro-5-methanesulfonylindolin-1-ylmethyl)pyridin-5-yl]piperidine-1-carboxylate] displayed an EC50 of 20.2 nM. This EC50 lies about 2.5-fold lower than the previous one.

`Cc1cc(S(C)(=O)=O)cc2ccn(Cc3ccc(C4CCN(C(=O)OC(C)(C)C)CC4)cn3)c12` [Example 26, tert-Butyl 4-[2-(5-methanesulfonyl-7-methylindol-1-ylmethyl)pyridin-5-yl]piperidine-1-carboxylate] returned an EC50 of 59.3 nM.

The compound `CC(C)(C)OC(=O)N1CCC(c2ccc(Cn3ccc4cc(S(C)(=O)=O)cc(Cl)c43)nc2)CC1` [Example 27, tert-Butyl 4-[2-(7-chloro-5-methanesulfonylindol-1-ylmethyl)pyridin-5-yl]piperidine-1-carboxylate] registered an EC50 of 13.9 nM.

`Cc1nc(S(C)(=O)=O)cc2ccn(Cc3ccc(C4CCN(C(=O)OC(C)(C)C)CC4)cn3)c12` [Example 28, tert-Butyl 4-[2-(5-methanesulfonyl-7-methyl-1H-pyrrolo[2,3-c]pyridin-1-ylmethyl)pyridin-5-yl]piperidine-1-carboxylate] showed an EC50 of 82.1 nM.

`CC(C)(C)OC(=O)N1CCC(c2ccc(Cn3ccc4cc(S(C)(=O)=O)ncc43)nc2)CC1` [Example 29, tert-Butyl 4-[2-(5-methanesulfonyl-1H-pyrrolo[2,3-c]pyridin-1-ylmethyl)pyridin-5-yl]piperidine-1-carboxylate] registered an EC50 of 39 nM.

With `CCc1cnc(N2CCC(c3ccc(Cn4ccc5cc(S(C)(=O)=O)ccc54)nc3)CC2)nc1` [Example 30, 5-Ethyl-2-[4-[2-(5-methanesulfonylindol-1-ylmethyl)pyridin-5-yl]piperidin-1-yl]pyrimidine], the EC50 is 11.7 nM.

Compound `CC(C)(C)OC(=O)N1CCC(c2ccc(Cn3ccc4cc(S(C)(=O)=O)c(Cl)cc43)nc2)CC1` [Example 31, tert-Butyl 4-[2-(6-chloro-5-methanesulfonylindol-1-ylmethyl)pyridin-5-yl]piperidine-1-carboxylate] displayed an EC50 of 41.1 nM.

`CCc1cnc(N2CCC(c3ccc(Cn4ccc5cc(S(C)(=O)=O)c(F)cc54)nc3)CC2)nc1` [Example 32, 5-Ethyl-2-[4-[2-(6-fluoro-5-methanesulfonylindol-1-ylmethyl)pyridin-5-yl]piperidin-1-yl]pyrimidine] came in with an EC50 of 52 nM.

`CCc1cnc(N2CCC(c3ccc(Cn4ccc5cc(-n6cnnn6)ccc54)nc3)CC2)nc1` [Example 33, 5-Ethyl-2-[4-[2-[5-(tetrazol-1-yl)indol-1-ylmethyl]pyridin-5-yl]piperidin-1-yl]pyrimidine] returned a concentration giving a half-maximal response (EC50) of 15.5 nM. Against the preceding compound, the EC50 is about 3.4-fold lower.
